# Data: US6451805B1, “Substituted pyrazole derivatives for the treatment of cardiocirculatory diseases” (Bayer Aktiengesellschaft, priority 1999, dated 2002)
# Tested on: anaesthetized rats
# Assay: Blood pressure measurements in anaesthetized rats
# Format: in vivo, rat
# Details: male Wistar rats, oral, dose 10 mg/kg
# Protocol: (§1) To determine the cardiovascular actions, the following investigations were carried out: in in vitro investigations on cells of vascular origin, the influx on guanylate cyclase-dependent cGMP formation was tested with and without NO donor. The anti-aggregatory properties were shown on human platelets stimulated with collagen. The vasorelaxant action was determined in rabbit aortal rings precontracted with phenylephrine. The hypotentive action was investigated in anaesthetized rats.
# Male Wistar rats having a body weight of 300-350 g are anaesthetized with thiopental (100 mg/kg i.p.) After tracheotomy, a catheter is inserted in the femoral artery for blood pressure measurement. The substances to be tested are administered orally in various doses by means of stomach tube as a suspension in Tylose solution.
Structure (SMILES),Max blood pressure fall,Time (of max blood pressure fall)
"OCc1ccc(-c2nn(Cc3ccccc3)c3ncccc23)o1 [Example 13, 1-Benzyl-3-(5-hydroxymethyl-2-furyl)-1-H-pyrazolo[3,4-b]pyridine]",−13 mm Hg,60 min

# Same assay, conditions: male Wistar rats, oral, dose 30 mg/kg
Structure (SMILES),Max blood pressure fall,Time (of max blood pressure fall)
"OCc1ccc(-c2nn(Cc3ccccc3)c3ncccc23)o1 [Example 13, 1-Benzyl-3-(5-hydroxymethyl-2-furyl)-1-H-pyrazolo[3,4-b]pyridine]",−23 mm Hg,60 min

# Tested on: soluble guanylate cyclase
# Assay: Stimulation of soluble guanylate cyclase in primary endothelial cells (intracellular cGMP)
# Format: cell-based
# Details: primary rabbit aortic endothelial cells, test substance final concentration 1 μM, 10 min incubation, with or without NO donor (SNP 1 μM)
# Protocol: as §1
# Primary endothelial cells were isolated from rabbit aortas by treatment with collagenase soln. The cells were then cultured in culture medium at 37° C./5% CO2 until confluence was reached. For the investigations, the cells were passaged, inoculated into 24-hole cell culture plates and subcultured until reaching confluence (˜2×10^5 cells/hollow). For the stimulation of endothelial guanylate cyclase, the culture medium was aspirated and the cells were washed once with Ringer solution. After removing the Ringer solution, the cells were incubated for 10 minutes at 37° C./5% CO2 in stimulation buffer with or without NO donor (sodium nitroprusside, SNP, 1 μM). […] The supernatants containing the intracellular cGMP were then removed and the cGMP concentration was determined by means of the cGMP-SPA system (Amersham Buchler, Brunswick).
row,Structure (SMILES),cGMP increase (%)
1,O=Cc1ccc(-c2nn(Cc3ccccc3F)c3nc(O)ccc23)o1 [Example 32],135%

# Tested on: not given
# Assay: not given
# Details: not given
row,Structure (SMILES),melting point
1,OCc1ccc(-c2nn(Cc3ccccc3)c3ncncc23)o1 [Example 34],165 °C
2,Nc1ncnc2c1c(-c1ccc(CO)o1)nn2Cc1ccccc1 [Example 35],213 °C
3,Nc1ncnc2c1c(-c1ccc(CO)o1)nn2Cc1ccccc1F [Example 36],207 °C
4,CN(C)c1ncnc2c1c(-c1ccc(CO)o1)nn2Cc1ccccc1F [Example 37],94 °C
5,Nc1nc(N)c2c(-c3ccc(CO)o3)nn(Cc3ccccc3F)c2n1 [Example 38],205 °C
6,Nc1nc(-c2ccccc2)nc2c1c(-c1ccc(CO)o1)nn2Cc1ccccc1F [Example 39],225 °C
7,O=CNc1nc(-c2ccccc2)nc2c1c(-c1ccc(CO)o1)nn2Cc1ccccc1F [Example 40],189 °C
8,COCCOc1cnc2c(c1)c(-c1ccc(CO)o1)nn2Cc1ccccc1F [Example 42],106 °C
9,Cc1cc(C)c2c(-c3ccc(CO)o3)nn(Cc3ccccc3)c2n1 [Example 43],155 °C
10,Cc1nc2c(c(-c3ccc(CO)o3)nn2Cc2ccccc2)c(C)c1C [Example 44],180 °C
11,CN(C)[S+]([O-])c1ccc(-c2nn(Cc3ccccc3F)c3ncccc23)o1 (centres unmarked) [Example 50],107 °C
12,[O-][S+](NCc1ccccc1)c1ccc(-c2nn(Cc3ccccc3F)c3ncccc23)o1 (centres unmarked) [Example 51],126 °C

# Second part, the compound after the results:
row,melting point,Structure (SMILES)
1,279 °C,CN1CCC([S+]([O-])c2ccc(-c3nn(Cc4ccccc4F)c4ncccc34)o2)CC1 (centres unmarked) [Example 52]
2,69 °C,CCCCCCCCN[S+]([O-])c1ccc(-c2nn(Cc3ccccc3F)c3ncccc23)o1 (centres unmarked) [Example 53]
3,122 °C,[O-][S+](c1ccc(-c2nn(Cc3ccccc3F)c3ncccc23)o1)N1CCOCC1 (centres unmarked) [Example 54]
4,136 °C,CC(C)N[S+]([O-])c1ccc(-c2nn(Cc3ccccc3F)c3ncccc23)o1 (centres unmarked) [Example 56]
5,138 °C,[O-][S+](NC1CC1)c1ccc(-c2nn(Cc3ccccc3F)c3ncccc23)o1 (centres unmarked) [Example 57]
6,109 °C,CC(C)CN[S+]([O-])c1ccc(-c2nn(Cc3ccccc3F)c3ncccc23)o1 (centres unmarked) [Example 58]
7,114 °C,CCCCCCN[S+]([O-])c1ccc(-c2nn(Cc3ccccc3F)c3ncccc23)o1 (centres unmarked) [Example 59]
8,161 °C,[O-][S+](NC1CCCCCC1)c1ccc(-c2nn(Cc3ccccc3F)c3ncccc23)o1 (centres unmarked) [Example 60]
9,109 °C,CC(C)NS(=O)(=O)c1ccc(-c2nn(Cc3ccccc3F)c3ncccc23)o1 [Example 61]
10,158 °C,[O-][S+](NCc1cccc2ccccc12)c1ccc(-c2nn(Cc3ccccc3F)c3ncccc23)o1 (centres unmarked) [Example 63]
11,132 °C,CC(N[S+]([O-])c1ccc(-c2nn(Cc3ccccc3F)c3ncccc23)o1)c1ccccc1 (centres unmarked) [Example 64]
12,107 °C,[O-][S+](c1ccc(-c2nn(Cc3ccccc3F)c3ncccc23)o1)N1CCCC1 (centres unmarked) [Example 65]
13,110 °C,[O-][S+](Nc1cccc(Cl)c1)c1ccc(-c2nn(Cc3ccccc3F)c3ncccc23)o1 (centres unmarked) [Example 66]
14,106 °C,Cc1coc(-c2nn(Cc3ccccc3F)c3ncccc23)n1 [Example 67]
15,145 °C,Cc1nc(-c2nn(Cc3ccccc3F)c3ncccc23)oc1CO [Example 68]
